US6685617B1, “Inhibitors of α4β1 mediated cell adhesion” (Pharmacia & Upjohn Company, priority 1998, dated 2004)

Key:
[1] = molecular target: T1, α4β1 integrin (Jurkat T-cell adhesion to IL-1 stimulated endothelial cell monolayers) (Homo sapiens, UniProt P05556+P13612); assay: Jurkat-endothelial cell adhesion assay (Jurkat EC); assay type: cell-based; conditions: Jurkat cells on IL-1 stimulated human umbilical vein endothelial cells; read-out: JK/EC (Jurkat EC Assay IC50 value range)
T1 construct: a T-cell line, Jurkat, known to express the α4β1 integrin; host or cells: Jurkat T-cell line
Procedure, shortened: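 Adhesion was expressed as percent of compound-free fluorescence after 20 min at 37° C (following 5 min settling on ice) of BCECF-loaded Jurkat T cells on washed HUVEC monolayers. The endothelium, passage 6 or lower, had received 0.1 ng/ml recombinant IL-1 for 4 hr at 37° C; compound was premixed with the T cells, typically at 100, 20, 5 and 1.25 μM.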

[2] = molecular target: T2, α4β1 integrin (Jurkat cell adhesion to immobilized CS-1 derived peptide CLHPGEILDVPST) (Homo sapiens, UniProt P05556+P13612); assay: Jurkat-CS-1 assay; assay type: cell-based; conditions: Jurkat cells on CS-1 peptide coated plates; read-out: JK/CS-1 (Jurkat CS-1 Assay IC50 value range)
T2 construct: 100 μl of Jurkat cells (2.5×10^6 cells/ml) in DMEM plus BSA; host or cells: Jurkat T-cell line
Procedure, shortened: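 CS-1 peptide was SPDP-crosslinked onto HSA-coated plates and blocked with BSA. Jurkat cells (2.5×10^6 cells/ml) in DMEM/BSA were mixed with compound, generally at 100, 20, 5 and 1.25 μM, and allowed to adhere for 1 hr at 37° C. Bound cells were fixed, stained with toluidine blue and quantified by OD590.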

T1 sequence (P13612 34-1032): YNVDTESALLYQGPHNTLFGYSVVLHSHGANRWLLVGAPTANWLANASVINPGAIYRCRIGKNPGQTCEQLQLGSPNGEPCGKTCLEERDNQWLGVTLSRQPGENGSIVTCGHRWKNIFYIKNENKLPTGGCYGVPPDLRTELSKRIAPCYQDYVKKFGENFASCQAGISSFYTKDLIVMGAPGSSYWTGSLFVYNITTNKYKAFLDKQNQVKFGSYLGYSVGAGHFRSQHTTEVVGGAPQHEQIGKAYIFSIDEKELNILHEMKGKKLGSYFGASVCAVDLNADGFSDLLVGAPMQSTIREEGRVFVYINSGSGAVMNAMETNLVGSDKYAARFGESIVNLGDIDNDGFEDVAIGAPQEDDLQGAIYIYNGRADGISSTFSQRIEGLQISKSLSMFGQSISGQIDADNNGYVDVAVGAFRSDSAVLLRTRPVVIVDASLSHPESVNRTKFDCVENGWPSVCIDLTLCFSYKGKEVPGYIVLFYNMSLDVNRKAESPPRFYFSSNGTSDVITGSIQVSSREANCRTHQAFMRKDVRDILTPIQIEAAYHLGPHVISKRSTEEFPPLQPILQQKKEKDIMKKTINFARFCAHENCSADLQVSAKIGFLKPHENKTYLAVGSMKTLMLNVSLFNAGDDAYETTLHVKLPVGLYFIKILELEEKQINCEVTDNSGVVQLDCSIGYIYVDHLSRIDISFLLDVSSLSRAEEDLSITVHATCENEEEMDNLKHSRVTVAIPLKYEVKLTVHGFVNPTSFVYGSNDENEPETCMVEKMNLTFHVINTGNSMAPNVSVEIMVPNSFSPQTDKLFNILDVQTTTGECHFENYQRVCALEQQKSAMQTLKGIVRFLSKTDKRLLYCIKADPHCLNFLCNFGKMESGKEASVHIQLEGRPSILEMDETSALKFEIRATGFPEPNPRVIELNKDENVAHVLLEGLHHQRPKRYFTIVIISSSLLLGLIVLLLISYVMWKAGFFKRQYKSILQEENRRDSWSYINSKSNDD
T1 sequence (P05556 21-798): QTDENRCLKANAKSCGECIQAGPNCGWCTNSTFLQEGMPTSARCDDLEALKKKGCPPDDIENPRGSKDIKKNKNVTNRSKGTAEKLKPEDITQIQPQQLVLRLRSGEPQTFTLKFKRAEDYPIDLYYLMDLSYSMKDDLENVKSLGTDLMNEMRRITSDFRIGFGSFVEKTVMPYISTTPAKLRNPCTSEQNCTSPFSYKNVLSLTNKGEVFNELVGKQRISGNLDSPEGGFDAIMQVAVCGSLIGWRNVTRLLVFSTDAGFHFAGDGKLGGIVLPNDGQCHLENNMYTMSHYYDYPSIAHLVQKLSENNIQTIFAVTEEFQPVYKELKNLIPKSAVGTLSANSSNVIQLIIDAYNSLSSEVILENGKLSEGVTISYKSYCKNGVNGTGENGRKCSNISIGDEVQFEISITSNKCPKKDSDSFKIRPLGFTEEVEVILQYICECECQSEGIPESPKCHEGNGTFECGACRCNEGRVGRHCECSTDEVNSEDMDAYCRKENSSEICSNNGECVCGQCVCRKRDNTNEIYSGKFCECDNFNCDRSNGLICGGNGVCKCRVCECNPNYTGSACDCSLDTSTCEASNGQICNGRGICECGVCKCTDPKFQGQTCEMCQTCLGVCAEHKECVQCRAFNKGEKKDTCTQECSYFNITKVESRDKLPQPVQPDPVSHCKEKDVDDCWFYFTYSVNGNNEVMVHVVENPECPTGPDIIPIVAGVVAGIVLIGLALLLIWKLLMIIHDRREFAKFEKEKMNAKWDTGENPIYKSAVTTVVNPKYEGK
T2 sequence (P13612 34-1032): as the sequence (P13612 34-1032) above
T2 sequence (P05556 21-798): as the sequence (P05556 21-798) above

Structure (SMILES)	IC50 [1] [nM]	IC50 [2] [nM]
CCOC(=O)N1CSC(C)(C)[C@@H]1C(=O)N[C@@H](Cc1ccc(NC(=O)c2c(Cl)cccc2Cl)cc1)C(=O)OC (relative stereo) [Example 30, [S-(R*,R*)]-4-[[[1-[[4-[(2,6-Dichlorobenzoyl)amino]phenyl]methyl]-2-methoxy-2-oxoethyl)amino]carbonyl]-5,5-dimethyl-3-thiazolidinecarboxylic Acid 3-Ethyl Ester]	≥ 1000	50 to 750
CC(=O)N1[C@@H](C(=O)N[C@@H](Cc2ccc(NC(=O)c3c(Cl)cccc3Cl)cc2)C(=O)O)CSC1(C)C [Example 84, N-[[(4S)-3-Acetyl-2,2-dimethyl-4-thiazolidinyl]carbonyl]-4-[(2,6-dichlorobenzoyl)amino]-L-phenylalanine]	≤ 250	≤ 50
O=C(Nc1ccc(C[C@H](NC(=O)[C@@H]2CCCCN2C(=O)C2CCCC(C(=O)O)C2)C(=O)O)cc1)c1c(Cl)cccc1Cl (some centres unmarked) [Example 178]	≥ 1000	≤ 50
COC(=O)[C@H](Cc1ccc(NC(=O)c2c(Cl)cccc2Cl)cc1)NC(=O)[C@@H]1CSCCN1C(=O)OC(C)(C)C [Example 96]	≥ 1000	≥ 750
CCOC(=O)N1CSC(C)(C)[C@@H]1C(=O)N[C@@H](Cc1ccc(NC(=O)c2c(Cl)cccc2Cl)cc1)C(=O)O (relative stereo) [Example 31, [S-(R*,R*)]-4-[[[1-Carboxy-2-[4-[(2,6-dichlorobenzoyl)amino]phenyl]ethyl]amino]carbonyl]-5,5-dimethyl-3-thiazolidinecarboxylic Acid 3-Ethyl Ester]	≤ 250	≤ 50
O=C(O)c1cncc(C(=O)N2CCC(C(=O)N[C@@H](Cc3ccc(NC(=O)c4c(Cl)cccc4Cl)cc3)C(=O)O)CC2)c1 [Example 222]	≥ 1000	50 to 750
O=C(O)CCC(=O)N1CCCCC[C@H]1C(=O)N[C@@H](Cc1ccc(NC(=O)c2c(Cl)cccc2Cl)cc1)C(=O)O (relative stereo) [Example 157, [S-(R*,R*)]-2-[[[1-Carboxy-2-[4-[(2,6-dichlorobenzoyl)amino]phenyl]ethyl]amino]carbonyl]-hexahydro-γ-oxo-1H-azepine-1-butanoic Acid]	≤ 250	50 to 750
COC(=O)[C@H](Cc1ccc(NC(=O)c2c(Cl)cccc2Cl)cc1)NC(=O)[C@H]1CSCN1S(=O)(=O)c1cccc2c(N(C)C)cccc12 [Example 48, 4-[(2,6-Dichlorobenzoyl)amino]-N-[[(4S)-3-[[5-(dimethylamino)-1-naphthalenyl]sulfonyl]-4-thiazolidinyl]carbonyl]-L-phenylalanine Methyl Ester]	≥ 1000	≥ 750
O=C(O)c1cccc(C(=O)N2CCC[C@H]2C(=O)N[C@@H](Cc2ccc(NC(=O)c3c(Cl)cccc3Cl)cc2)C(=O)O)c1 [Example 235]	≥ 1000	50 to 750
O=C(O)CCC(=O)N1CCCCC1C(=O)N[C@@H](Cc1ccc(NC(=O)c2c(Cl)cccc2Cl)cc1)C(=O)O (some centres unmarked) [Example 167]	250 to 1000	50 to 750
O=C(O)c1cncc(C(=O)N2CCCC[C@H]2C(=O)N[C@@H](Cc2ccc(NC(=O)c3c(Cl)cccc3Cl)cc2)C(=O)O)c1 [Example 172, 5-[[(2S)-2-[[[(1S)-1-Carboxy-2-[4-[(2,6-dichlorobenzoyl)amino]phenyl]ethyl]amino]carbonyl]-1-piperidinyl]carbonyl]-3-pyridinecarboxylic Acid]	≤ 250	≤ 50
O=C(O)c1ccc2cc(C(=O)N3CCC[C@H]3C(=O)N[C@@H](Cc3ccc(NC(=O)c4c(Cl)cccc4Cl)cc3)C(=O)O)ccc2c1 [Example 236]	≥ 1000	≥ 750
COC(=O)[C@H](Cc1ccc(NC(=O)c2c(Cl)cccc2Cl)cc1)NC(=O)[C@H]1CSCN1C(=O)NC(C)(C)C [Example 6, 4-[(2,6-Dichlorobenzoyl)amino]-N-[[(4S)-3-[((1,1-dimethylethyl)amino)carbonyl]-4-thiazolidinyl]carbonyl]-L-phenylalanine Methyl Ester]	≥ 1000	≥ 750
